Tests used:
CD8+ T-cells = test: In vitro T-cell priming assay with aAPCs loaded with peptide/MHC and anti-CD28, pMHC multimer readout; format: cell-based, human; settings: in vitro immunogenicity, HLA-A*02 restricted peptides
From the text: In order to obtain information regarding the immunogenicity of the TUMAPs of the present invention, the inventors performed investigations using an in vitro T-cell priming assay based on repeated stimulations of CD8+ T-cells with artificial antigen presenting cells (aAPCs) loaded with peptide/MHC complexes and anti-CD28 antibody.
In order to perform in vitro stimulations by artificial antigen presenting cells loaded with peptide-MHC complex (pMHC) and anti-CD28 antibody, the inventors first isolated CD8+ T-cells from fresh HLA-A*02 leukopheresis products via positive selection using CD8 microbeads (Miltenyi Biotec, Bergisch-Gladbach, Germany) of healthy donors obtained from the University clinics Mannheim, Germany, after informed consent.
PBMCs and isolated CD8+ lymphocytes were incubated in T-cell medium (TCM) until use consisting of RPMI-Glutamax (Invitrogen, Karlsruhe, Germany) supplemented with 10% heat inactivated human AB serum (PAN-Biotech, Aidenbach, Germany), 100 U/ml Penicillin/100 μg/ml Streptomycin (Cambrex, Cologne, Germany), 1 mM sodium pyruvate (CC Pro, Oberdorla, Germany), 20 μg/ml Gentamycin (Cambrex). 2.5 ng/ml IL-7 (PromoCell, Heidelberg, Germany) and 10 U/ml IL-2 (Novartis Pharma, Nürnberg, Germany) were also added to the TCM at this step.
Generation of pMHC/anti-CD28 coated beads, T-cell stimulations and readout was performed in a highly defined in vitro system using four different pMHC molecules per stimulation condition and 8 different pMHC molecules per readout condition.
The purified co-stimulatory mouse IgG2a anti human CD28 Ab 9.3 (Jung et al., 1987) was chemically biotinylated using Sulfo-N-hydroxysuccinimidobiotin as recommended by the manufacturer (Perbio, Bonn, Germany). Beads used were 5.6 μm diameter streptavidin coated polystyrene particles (Bangs Laboratories, Illinois, USA).
800,000 beads/200 μl were coated in 96-well plates in the presence of 4×12.5 ng different biotin-pMHC, washed and 600 ng biotin anti-CD28 were added subsequently in a volume of 200 μl. Stimulations were initiated in 96-well plates by co-incubating 1×10^6 CD8+ T-cells with 2×10^5 washed coated beads in 200 μl TCM supplemented with 5 ng/ml IL-12 (PromoCell) for 3 days at 37° C. Half of the medium was then exchanged by fresh TCM supplemented with 80 U/ml IL-2 and incubating was continued for 4 days at 37° C. This stimulation cycle was performed for a total of three times. For the pMHC multimer readout using 8 different pMHC molecules per condition, a two-dimensional combinatorial coding approach was used as previously described (Andersen et al., 2012) with minor modifications encompassing coupling to 5 different fluorochromes. Finally, multimeric analyses were performed by staining the cells with Live/dead near IR dye (Invitrogen, Karlsruhe, Germany), CD8-FITC antibody clone SK1 (BD, Heidelberg, Germany) and fluorescent pMHC multimers. For analysis, a BD LSRII SORP cytometer equipped with appropriate lasers and filters was used. Peptide specific cells were calculated as percentage of total CD8+ cells. Evaluation of multimeric analysis was done using the FlowJo software (Tree Star, Oregon, USA). In vitro priming of specific multimer+ CD8+ lymphocytes was detected by comparing to negative control stimulations.

HLA-A*02:01 = HLA-A*02:01 (Homo sapiens, UniProt P04439, D140Y/D185E/D98H/E176V/E277Q/G131W/G231S/I119V/I121R/I166T/I218V/L300P/L318F/N151K/N90K/P208A/P217A/Q86G/Q94H/R138H/R169H/T345S); test: MHC binding assay (UV-ligand exchange, beta2m ELISA, peptide exchange yield); settings: MHC class I binding score; binding to HLA-A*02:01 ranged by peptide exchange yield (UV-ligand exchange, β2m ELISA)
Outline: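 UV-cleavable peptide in HLA monomers exchanged for test peptide by UV irradiation; exchange yield measured by streptavidin-capture ELISA with HRP anti-β2m (TMB, 450 nm) on 100-fold diluted complexes. Quantified against refolded HLA-A*02:01/MLA-001 standards (15-500 ng/ml).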

| Peptide exchange (HLA-A*02:01) | Substance | Wells positive (CD8+ T-cells) |
| --- | --- | --- |
| ″++++″ (≥75% = ++++) | 3 (RLIPDTLYSV; listed as Homo sapiens) [compound 3] | ″+++″ (50%-69% = +++) |
| ″+++″ (≥50 = +++) | 124 (RVLPPSALQSV; listed as Homo sapiens) [compound 124] | ″+″ (<20% = +) |
